# Source: patent US20140121101A1, “TERNARY FUNGICIDAL COMPOSITIONS COMPRISING A DITHIINO-TETRACARBOXAMIDE FUNGICIDE” (BAYER INTELLECTUAL PROPERTY GMBH, priority 2011, published 2014)
# Test system: Alternaria solani
# Experiment: Alternaria test (tomatoes)/preventive
# Format: in vivo
# Conditions: tomato plants, preventive spray, evaluated 3 days after inoculation
# Protocol: Alternaria Test (Tomatoes)/Preventive [table] To produce a suitable preparation of active compound, 1 part by weight of active compound is mixed with the stated amounts of solvent and emulsifier, and the concentrate is diluted with water to the desired concentration. To test for preventive activity, young plants are sprayed with the preparation of active compound at the stated rate of application. After the spray coating has dried on, the plants are inoculated with an aqueous spore suspension of Alternaria solani. The plants are then placed in an incubation cabinet at approximately 20° C. and a relative atmospheric humidity of 100%. The test is evaluated 3 days after the inoculation. 0% means an efficacy which corresponds to that of the untreated control while an efficacy of 100% means that no disease is observed.
SMILES,Efficacy in % found (activity found) (5 ppm a.i.) [%],Efficacy in % found (activity found) (0.5 ppm a.i.) [%]
"Cn1c(=O)c2sc3c(=O)n(C)c(=O)c3sc2c1=O [(1.1), 2,6-dimethyl-1H,5H-[1,4]dithiino[2,3-c:5,6-c′]dipyrrole-1,3,5,7(2H,6H)-tetrone]",0,–
"OC(Cc1ccccc1Cl)(Cn1nc[nH]c1=S)C1(Cl)CC1 (stereo not drawn) [(2.41), prothioconazole]",–,4
"CON=C(C(=O)OC)c1ccccc1CON=C(C)c1cccc(C(F)(F)F)c1 [(3.22), trifloxystrobin]",–,29
